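Test compounds were applied to cells in 96-well plates for 48 hours at 5 doses. GI50 marks 50% less growth.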 The source made the active and inactive calls. No stated cut-off is given here; in the data, active = GI50 up to about 1.1 µM and inactive = higher.
Experiments:
Assay in all cases: NCI tumour cell line growth inhibition, 48 h
NCI-H226 = test system: NCI-H226
A549 = test system: A549
HOP-92 = test system: HOP-92
OVCAR-5 = test system: OVCAR-5
SF-539 = test system: SF-539
M14 = test system: M14
Hs-578T = test system: Hs-578T
A498 = test system: A498
SF-295 = test system: SF-295
T47D = test system: T47D
OVCAR-4 = test system: OVCAR-4
786-0 = test system: 786-0
HT-29 = test system: HT-29
HCT-116 = test system: HCT-116
HL-60 = test system: HL-60
SNB-19 = test system: SNB-19
SK-OV-3 = test system: SK-OV-3
DU-145 = test system: DU-145
SK-MEL-2 = test system: SK-MEL-2
KM12 = test system: KM12
LOX IMVI = test system: LOX IMVI
MOLT-4 = test system: MOLT-4
IGROV-1 = test system: IGROV-1
HCT-15 = test system: HCT-15
OVCAR-3 = test system: OVCAR-3
SW-620 = test system: SW-620
NCI-H23 = test system: NCI-H23
TK-10 = test system: TK-10
CCRF-CEM = test system: CCRF-CEM
SK-MEL-28 = test system: SK-MEL-28
RXF 393 = test system: RXF 393
UACC-62 = test system: UACC-62
U-251 = test system: U-251
ACHN = test system: ACHN
UACC-257 = test system: UACC-257
K562 = test system: K562
HCC 2998 = test system: HCC 2998
UO-31 = test system: UO-31
HOP-62 = test system: HOP-62
BT-549 = test system: BT-549
MDA-MB-231 = test system: MDA-MB-231
OVCAR-8 = test system: OVCAR-8
NCI-H522 = test system: NCI-H522
SN12C = test system: SN12C
SR = test system: SR
NCI-H460 = test system: NCI-H460
RPMI-8226 = test system: RPMI-8226
CAKI-1 = test system: CAKI-1
EKVX = test system: EKVX
COLO 205 = test system: COLO 205
MDA-MB-435 = test system: MDA-MB-435
SF-268 = test system: SF-268
MDA-N = test system: MDA-N
NCI/ADR-RES = test system: NCI/ADR-RES
SK-MEL-5 = test system: SK-MEL-5
SNB-75 = test system: SNB-75
PC-3 = test system: PC-3
Malme-3M = test system: Malme-3M
MCF7 = test system: MCF7

**Q.** Which GI50 (NCI-H226) does the source give for COCC1OC(OC2OCC3OC4(OCC(O)(C(C)OC)C5OCOC54)OC3C2OC)C(OC)C(O)C1OC1OC(C)C(OC)C(OC2OC(C)C3OC4(CC(O)C(OC5CC(OC6CC(C)([N+](=O)[O-])C(OC)C(C)O6)C(OC(=O)c6c(C)c(Cl)c(O)c(Cl)c6OC)C(C)O5)C(C)O4)OC3(C)C2O)C1O (stereo not given) here?
**A.** > 100 µM (inactive)

**Q.** What about the GI50 (A549) of the same molecule?
**A.** > 100 µM (inactive)

**Q.** And the GI50 (HOP-92)?
**A.** > 100 µM (inactive)

**Q.** And the GI50 (OVCAR-5)?
**A.** > 100 µM (inactive)

**Q.** What about the GI50 (SF-539) of the same molecule?
**A.** > 100 µM (inactive)

**Q.** And the GI50 (M14)?
**A.** > 100 µM (inactive)

**Q.** And the GI50 (Hs-578T)?
**A.** > 100 µM (inactive)

**Q.** And the GI50 (A498)?
**A.** > 100 µM (inactive)

**Q.** And the GI50 (SF-295)?
**A.** > 100 µM (inactive)

**Q.** And the GI50 (T47D)?
**A.** > 100 µM (inactive)

**Q.** What about the GI50 (OVCAR-4) of the same molecule?
**A.** > 100 µM (inactive)

**Q.** And the GI50 (786-0)?
**A.** > 100 µM (inactive)

**Q.** What about the GI50 (HT-29) of the same molecule?
**A.** > 100 µM (inactive)

**Q.** What about the GI50 (HCT-116) of the same molecule?
**A.** > 100 µM (inactive)

**Q.** And the GI50 (HL-60)?
**A.** > 100 µM (inactive)

**Q.** And the GI50 (SNB-19)?
**A.** > 100 µM (inactive)

**Q.** And the GI50 (SK-OV-3)?
**A.** > 100 µM (inactive)

**Q.** And the GI50 (DU-145)?
**A.** > 100 µM (inactive)

**Q.** What about the GI50 (SK-MEL-2) of the same molecule?
**A.** > 100 µM (inactive)

**Q.** What about the GI50 (KM12) of the same molecule?
**A.** > 100 µM (inactive)

**Q.** And the GI50 (LOX IMVI)?
**A.** > 100 µM (inactive)

**Q.** What about the GI50 (MOLT-4) of the same molecule?
**A.** > 100 µM (inactive)

**Q.** What about the GI50 (IGROV-1) of the same molecule?
**A.** > 100 µM (inactive)

**Q.** And the GI50 (HCT-15)?
**A.** > 100 µM

**Q.** What about the GI50 (OVCAR-3) of the same molecule?
**A.** > 100 µM (inactive)

**Q.** What about the GI50 (SW-620) of the same molecule?
**A.** > 100 µM (inactive)

**Q.** And the GI50 (NCI-H23)?
**A.** > 100 µM (inactive)

**Q.** And the GI50 (TK-10)?
**A.** > 100 µM (inactive)

**Q.** And the GI50 (CCRF-CEM)?
**A.** > 100 µM (inactive)

**Q.** And the GI50 (SK-MEL-28)?
**A.** > 100 µM (inactive)

**Q.** And the GI50 (RXF 393)?
**A.** > 100 µM (inactive)

**Q.** And the GI50 (UACC-62)?
**A.** > 100 µM (inactive)

**Q.** And the GI50 (U-251)?
**A.** > 100 µM (inactive)

**Q.** What about the GI50 (ACHN) of the same molecule?
**A.** > 100 µM (inactive)

**Q.** And the GI50 (UACC-257)?
**A.** > 100 µM (inactive)

**Q.** And the GI50 (K562)?
**A.** > 100 µM (inactive)

**Q.** And the GI50 (HCC 2998)?
**A.** > 100 µM (inactive)

**Q.** And the GI50 (UO-31)?
**A.** > 100 µM (inactive)

**Q.** What about the GI50 (HOP-62) of the same molecule?
**A.** > 100 µM (inactive)

**Q.** What about the GI50 (BT-549) of the same molecule?
**A.** > 100 µM (inactive)

**Q.** What about the GI50 (MDA-MB-231) of the same molecule?
**A.** > 100 µM (inactive)

**Q.** And the GI50 (OVCAR-8)?
**A.** > 100 µM (inactive)

**Q.** And the GI50 (NCI-H522)?
**A.** > 100 µM (inactive)

**Q.** And the GI50 (SN12C)?
**A.** > 100 µM (inactive)

**Q.** What about the GI50 (SR) of the same molecule?
**A.** > 100 µM (inactive)

**Q.** And the GI50 (NCI-H460)?
**A.** > 100 µM (inactive)

**Q.** What about the GI50 (RPMI-8226) of the same molecule?
**A.** > 100 µM (inactive)

**Q.** What about the GI50 (CAKI-1) of the same molecule?
**A.** > 100 µM (inactive)

**Q.** What about the GI50 (EKVX) of the same molecule?
**A.** > 100 µM (inactive)

**Q.** And the GI50 (COLO 205)?
**A.** > 100 µM (inactive)

**Q.** And the GI50 (MDA-MB-435)?
**A.** > 100 µM (inactive)

**Q.** And the GI50 (SF-268)?
**A.** > 100 µM (inactive)

**Q.** What about the GI50 (MDA-N) of the same molecule?
**A.** > 100 µM (inactive)

**Q.** And the GI50 (NCI/ADR-RES)?
**A.** > 100 µM (inactive)

**Q.** And the GI50 (SK-MEL-5)?
**A.** > 100 µM (inactive)

**Q.** And the GI50 (SNB-75)?
**A.** > 100 µM (inactive)

**Q.** And the GI50 (PC-3)?
**A.** > 100 µM (inactive)

**Q.** With O=C1CC(O)c2c1csc2Br (stereo not given) as the molecule, how does the GI50 (A549) read?
**A.** 28.4 µM (inactive)

**Q.** And the GI50 (OVCAR-5)?
**A.** > 100 µM (inactive)

**Q.** What about the GI50 (M14) of the same molecule?
**A.** 18.2 µM (inactive)

**Q.** What about the GI50 (Hs-578T) of the same molecule?
**A.** 26.6 µM (inactive)

**Q.** And the GI50 (SF-295)?
**A.** 60.7 µM (inactive)

**Q.** What about the GI50 (T47D) of the same molecule?
**A.** 23.7 µM (inactive)

**Q.** What about the GI50 (OVCAR-4) of the same molecule?
**A.** 31.6 µM (inactive)

**Q.** What about the GI50 (786-0) of the same molecule?
**A.** 17.9 µM (inactive)

**Q.** And the GI50 (HT-29)?
**A.** 33.3 µM (inactive)

**Q.** And the GI50 (HCT-116)?
**A.** 18.5 µM (inactive)

**Q.** What about the GI50 (SNB-19) of the same molecule?
**A.** 34.2 µM (inactive)

**Q.** And the GI50 (SK-OV-3)?
**A.** 53.8 µM (inactive)

**Q.** And the GI50 (DU-145)?
**A.** 25.9 µM (inactive)

**Q.** And the GI50 (SK-MEL-2)?
**A.** 34.2 µM (inactive)

**Q.** What about the GI50 (KM12) of the same molecule?
**A.** 18.7 µM (inactive)

**Q.** What about the GI50 (LOX IMVI) of the same molecule?
**A.** 16.4 µM (inactive)

**Q.** And the GI50 (MOLT-4)?
**A.** 20.3 µM (inactive)

**Q.** What about the GI50 (IGROV-1) of the same molecule?
**A.** 13.5 µM (inactive)

**Q.** And the GI50 (HCT-15)?
**A.** 18.5 µM

**Q.** And the GI50 (OVCAR-3)?
**A.** 19.3 µM (inactive)

**Q.** What about the GI50 (SW-620) of the same molecule?
**A.** 15.3 µM (inactive)

**Q.** And the GI50 (NCI-H23)?
**A.** 21.9 µM (inactive)

**Q.** What about the GI50 (TK-10) of the same molecule?
**A.** 8.97 µM (inactive)

**Q.** What about the GI50 (CCRF-CEM) of the same molecule?
**A.** 25.2 µM (inactive)

**Q.** And the GI50 (SK-MEL-28)?
**A.** 17.8 µM (inactive)

**Q.** And the GI50 (RXF 393)?
**A.** 17.3 µM (inactive)

**Q.** And the GI50 (UACC-62)?
**A.** 22.7 µM (inactive)

**Q.** And the GI50 (U-251)?
**A.** 19.8 µM (inactive)

**Q.** And the GI50 (ACHN)?
**A.** 21.9 µM (inactive)

**Q.** And the GI50 (UACC-257)?
**A.** 10.7 µM (inactive)

**Q.** What about the GI50 (K562) of the same molecule?
**A.** 25.6 µM (inactive)

**Q.** What about the GI50 (HCC 2998) of the same molecule?
**A.** 19.2 µM (inactive)

**Q.** And the GI50 (UO-31)?
**A.** 19.8 µM (inactive)

**Q.** What about the GI50 (HOP-62) of the same molecule?
**A.** 73.6 µM (inactive)

**Q.** What about the GI50 (BT-549) of the same molecule?
**A.** 23.2 µM (inactive)

**Q.** And the GI50 (MDA-MB-231)?
**A.** 23.8 µM (inactive)

**Q.** And the GI50 (OVCAR-8)?
**A.** 23.3 µM (inactive)

**Q.** And the GI50 (NCI-H522)?
**A.** 15.5 µM (inactive)

**Q.** What about the GI50 (Malme-3M) of the same molecule?
**A.** 30.8 µM (inactive)

**Q.** What about the GI50 (SN12C) of the same molecule?
**A.** 20.7 µM (inactive)

**Q.** What about the GI50 (NCI-H460) of the same molecule?
**A.** 25.7 µM (inactive)

**Q.** And the GI50 (RPMI-8226)?
**A.** 14.3 µM (inactive)

**Q.** And the GI50 (CAKI-1)?
**A.** 37.8 µM (inactive)

**Q.** What about the GI50 (EKVX) of the same molecule?
**A.** 48.2 µM (inactive)

**Q.** And the GI50 (COLO 205)?
**A.** 41.3 µM (inactive)

**Q.** And the GI50 (MDA-MB-435)?
**A.** 18.8 µM (inactive)

**Q.** And the GI50 (MCF7)?
**A.** 19.8 µM (inactive)

**Q.** And the GI50 (SF-268)?
**A.** 27.4 µM (inactive)

**Q.** And the GI50 (MDA-N)?
**A.** 22.5 µM (inactive)

**Q.** What about the GI50 (NCI/ADR-RES) of the same molecule?
**A.** 20.7 µM (inactive)

**Q.** And the GI50 (SK-MEL-5)?
**A.** > 100 µM (inactive)

**Q.** And the GI50 (SNB-75)?
**A.** 26.4 µM (inactive)

**Q.** What about the GI50 (PC-3) of the same molecule?
**A.** 32.4 µM (inactive)

— ChEMBL document CHEMBL1201862, “PubChem BioAssay data set” (2004)
